{"source": "patent US4216209A", "about": "“Tripeptide angiotensin converting enzyme inhibitors” (American Home Products Corporation, priority 1979, dated 1980)", "test_system": "spontaneously hypertensive rat (SHR)", "test": "Antihypertensive test in conscious spontaneously hypertensive rats: arterial BP and pressor/depressor responses to i.v. angiotensin I and bradykinin after oral dosing", "type": "in vivo", "settings": "male SHR, 50 mg/kg of body weight", "source_text": "Male SHR of the Okamoto-Aoki strain (purchased from Charles River Lakeview, Boston, Mass.) ranging in weight between 280 and 370 g are anesthetized with diethyl ether. Their left femoral arteries and veins are cannulated with polyethylene tubing of the appropriate size. Each animal is then placed in a rubber mesh jacket which is secured with four towel clamps. The animal is suspended via the towel clamps from a bar and allowed to recover from the anesthesia. The arterial cannula is connected to a Statham pressure transducer (Model P23, Gould Statham Instruments, Hato Rey, Porto Rico) which, in turn, is attached to a polygraph for recording arterial blood pressure (BP) and pulse rate.\nWhen the BP has stabilized, the intravenous injection of the agonists, angiotensin I (AI) or bradykinin (B) is initiated. Each of the agonists is prepared daily from refrigerated stock solution (using distilled water as the diluent), and injected in a volume of 1 ml/kg (using physiological saline as the diluent) at the following doses: AI, 0.125 μg/kg and B, 5 μg/kg.\nEnough time is allowed for the BP to return to preinjection levels before the next agonist is given. A dose of the compound to be tested is given orally seven to ten minutes after the injection of the last agonist. Four rats are used and the test compound is given by gastric gavage in a volume of 5 ml/kg of body weight. Heart rate and BP are measured at 5, 10, 15, 30, 45 and 60 minutes and at hourly intervals thereafter for a period of at least four hours after drug administration. At one and two hours after the test compound has been given, AI and B are injected again at the same concentration and in the same order as during the control period.", "note": "Non-standard residues stand in square brackets, D forms with d. Residues, ends and D or L forms follow the SMILES beside them. Mpa = O=C(O)CCS", "data": [{"molecule": "CC(C)C[C@H](NC(=O)[C@H](Cc1c[nH]cn1)NC(=O)[C@@H]1CCCN1C(=O)CCS)C(=O)O", "note": "[N-[N-[1-(3-Mercapto-1-oxopropyl)prolyl]histidyl]leucine] ([Mpa]PHL-OH)", "values": [{"measurement": "decrease in mean arterial BP", "setting": "oral (gastric gavage), measured two hours after administration", "value": 8, "unit": "%"}, {"measurement": "reduction in angiotensin I response on BP", "setting": "oral, angiotensin I 0.125 μg/kg i.v.", "value": 61, "unit": "%"}, {"measurement": "potentiation of bradykinin response", "setting": "oral, bradykinin 5 μg/kg i.v.", "value": 564, "unit": "%"}]}]}
